Values quoted from earlier work in patent US20240225064A1, “METHOD FOR MASS-PRODUCING SWEETENER HAVING TASTE QUALITY SIMILAR TO THAT OF SUGAR AND HAVING D-ALLULOSE FUNCTIONALITY” (NATIONAL UNIVERSITY CORPORATION KAGAWA UNIVERSITY, priority 2021, published 2024).
Read-outs that look alike come from different tables or passages of the source.

Experiments:
[1] = content in sweetener
[2] = not given; remark: listed apart in the source

| Compound | sweetness of D-fructose relative to sucrose (at 40° C.) | sweetness of D-fructose relative to sucrose (at high temperatures) [%] | sweetness degree (sweetness intensity) (assuming that the sweetness degree of sugar is 100) | sweetness degree relative to sugar (of that of sugar) | D-allulose content at which the function of suppressing rapid absorption of a saccharide appears [1] [mass %] | acute oral toxicity test [2] |
| --- | --- | --- | --- | --- | --- | --- |
| O=C(CO)[C@@H](O)[C@H](O)[C@H](O)CO [D-fructose] | equal thereto | 60 |  |  |  |  |
| O=C(CO)[C@H](O)[C@H](O)[C@H](O)CO [D-allulose] |  |  | 70 | about 70% | ≥ 5 | ≥ 5,000 mg/kg |
